Reference: patent US20100145057A1, “NOVEL PRODRUGS” (SUN PHARMA ADVANCED RESEARCH COMPANY LTD., priority 2007, published 2010)
Like-named read-outs stand apart in the source and are kept apart here.

What was measured:
[1] = tested on: mouse; details: cited from earlier work
[2] = Comparative bioavailability: LC-MS determination of gabapentin in plasma after oral gabapentin or example 5; format: in vivo; details: for dose dependence of bioavailability / absorption (in words): data of Table 1, 50 and 100 mg/kg p.o.; for AUC(0-t): po, t = 24 hrs, plasma
Method: (§1) The prodrugs compounds of the present invention, i.e. the compounds of formula-I release in-vivo the compounds of formula III. Two of the representative compounds of the present invention i.e. compound of example 5 and compound 15, were tested to determine the comparative bioavailability of the drug and the prodrug. The following method was employed for the determination of bioavailability of the test compound of example 5.
Liquid Chromatography Mass Spectrometric Method for the Determination of Gabapentin from Example 5 in Plasma.
Mobile phase: Prepare 2 mM ammonium acetate solution in milliQ water and adjust the pH to 3.0 with formic acid. Mix above buffer solution and acetonitrile in the ratio (30:70 v/v) and filter.
Column: Hypurity C18, 50×2.1 mm, 5μ; Column oven temperature: 40° C.; Flow rate: 0.25 ml/min; Injection volume: 10 μl; Run time: 2.0 min.; Retention time: Example 5: 1.0 min.; Gabapentin: 1.0 min.; Carbamazepine: 1.0 min.;
Mass Parameters: Spray Voltage: 3500 V; Sheath Gas Pressure: 35 ml/min; Capillary Temperature: 380° C.; Mode: Positive; Aux gas pressure: 10 ml/min
For Gabapentin Linearity Range: 200 ng-19600 ng/ml in mobile phase.
For example 5: Linearity Range: 50 ng 5000 ng/ml in mobile phase.
A 100 μl plasma sample and 5 μl of internal standard was taken in a micro centrifuge tube. Vortex for 20-30 sec. The test samples were loaded in preconditioned HLB cartridges. The cartridge was washed with 1 ml Milli-Q water the sample was eluted with 500 μl of mobile phase. The sample was centrifuged at 15000 rpm for 5 minutes and the supernatant was collected for analysis.
(§2) Table 1 and Table 2 below provide Dose-concentration data for the representative compounds 5 and compound 15 of the invention, which are prodrugs of gabapentin and baclofen respectively.

[3] = cited from earlier work
[4] = Comparative bioavailability: baclofen plasma levels after oral baclofen or example 15; format: in vivo; details: 20 ug/kg, baclofen dosed 20 mcg/kg p.o.
Method: as §1, §2

[5] = oral; cited from earlier work

Question: Which LD50 [1] does the source give for `O=C1CC2(CCCCC2)CN1` [corresponding lactam] here?
Answer: 300 mg/kg

Question: With `CCOC(=O)C(C)=NOC(=O)NCC1(CC(=O)O)CCCCC1` [Example 5, N-[(Ethyl oximinopropionate-2-yl)carbonyl]-1-aminomethyl cyclohexaneacetic acid] as the molecule, how does the “dose dependence of bioavailability / absorption (in words)” value [2] read?
Answer: dose-proportional bioavailability

Question: Which LD50 [1] does the source give for `NCC1(CC(=O)O)CCCCC1` [Gabapentin, 1-(aminomethyl)cyclohexaneacetic acid] here?
Answer: > 8000 mg/kg

Question: What about the “dose dependence of bioavailability / absorption (in words)” value [2] of the same molecule?
Answer: non-linear saturable absorption, with lower bioavailability at the higher dose

Question: What about the AUC(0-t) ([2]; gabapentin dosed 50 mg/kg p.o.) of the same molecule?
Answer: 85000 ng·h/mL

Question: And the AUC(0-t) ([2]; gabapentin dosed 100 mg/kg p.o.)?
Answer: 99000 ng·h/mL

Question: What about the oral bioavailability ([3]; 900 mg/day oral) of the same molecule?
Answer: approximately 60%

Question: What about the oral bioavailability ([3]; 1800 mg/day oral) of the same molecule?
Answer: ~27%

Question: With `NCC(CC(=O)O)c1ccc(Cl)cc1` (centres unmarked) [Baclofen] as the molecule, how does the Cmax [4] read?
Answer: 3600 ng/mL

Question: And the AUC(0-t) ([4]; t = 24 hrs)?
Answer: 15000 ng·h/mL

Question: With `NC[C@H]1CC[C@H](C(=O)O)CC1` [Tranexamic acid, trans-4-(aminomethyl)cyclohexanecarboxylic acid] as the molecule, how does the “orally administered dose absorbed” value [5] read?
Answer: 35-40%
